Test results taken from patent US11780852B2, “Methods for treating Crohn's disease using 3-((1R,3s,5S)-3-((7-((5-methyl-1H-pyrazol-3-yl)amino)-1,6-naphthyridin-5-yl)amino)-8-azabicyclo[3.2.1]octan-8-yl)propanenitrile” (priority 2015, dated 2023).
Read-outs that look alike come from different tables or passages of the source.

How the values were obtained:
[1] = tested on: IL-4 induced STAT6 phosphorylation in THP-1 human monocytic cells
[2] = tested on: IL-13 induced STAT6 phosphorylation in BEAS-2B human lung epithelial cells
TYK2 = TYK2 (Homo sapiens (Human), UniProt P29597); format: biochemical
Experimental: (§1) Assay 1: Biochemical JAK and Off-Target Kinase Assays
(§2) A panel of four LanthaScreen JAK biochemical assays (JAK1, 2, 3 and Tyk2) were carried in a common kinase reaction buffer (50 mM HEPES, pH 7.5, 0.01% Brij-35, 10 mM MgCl2, and 1 mM EGTA). Recombinant GST-tagged JAK enzymes and a GFP-tagged STAT1 peptide substrate were obtained from Life Technologies.
(§3) Serially diluted compounds were pre-incubated with each of the four JAK enzymes and the substrate in white 384-well microplates (Corning) at ambient temperature for 1 h. ATP was subsequently added to initiate the kinase reactions in 10 μL total volume, with 1% DMSO. […] Kinase reactions were allowed to proceed for 1 hour at ambient temperature before a 10 μL preparation of EDTA (10 mM final concentration) and Tb-anti-pSTAT1 (pTyr701) antibody (Life Technologies, 2 nM final concentration) in TR-FRET dilution buffer (Life Technologies) was added. The plates were allowed to incubate at ambient temperature for 1 h before being read on the EnVision reader (Perkin Elmer).
(§4) Results were expressed as pIC50 (negative logarithm of IC50) and subsequently converted to pKi (negative logarithm of dissociation constant, Ki) using the Cheng-Prusoff equation.

[3] = 5% to 90% relative humidity, room temperature; listed as Crystalline 3-(1R,3s,5S)-3-((7-((5-methyl-H-pyrazol-3-yl)amino)-1,6-naphthyridi))
Experimental: A weighed sample was used and the humidity was lowest possible value (close to 0% RH) at the start of the analysis. The DMS analysis consisted of an initial drying step (0% RH) for 120 minutes, followed by two cycles of sorption and desorption with a scan rate of 5% RH/step over the humidity range of 5% RH to 90% RH. The DMS run was performed isothermally at 25° C.

JAK1 = JAK1 (Homo sapiens (Human), UniProt P23458); format: biochemical
Experimental: as §1, §2, §3, §4

[4] = tested on: oxazolone-induced colitis; experiment: Mouse model of oxazolone-induced colitis; format: in vivo, BALB/C mice; details: PO, 1, 3, and/or 10 mg/kg BID (doses up to 10 mg/kg BID)
Experimental: Assay 7: Mouse Model of Oxazalone-Induced Colitis
Oxazolone-induced colitis is an experimental model that has a histological resemblance to human ulcerative colitis (Heller et al. Immunology, 2002, 17, 629-638). Adult BALB/C mice from Harlan were used in the assay. On day 1, animals were lightly anesthetized with isoflurane and the hairs between the shoulder were carefully removed before oxazolone (4%, 150 μL, 4:1 acetone:olive oil formulation) or vehicle solution was slowly applied for skin sensitization. Seven days after skin sensitization, the mice were fasted overnight, anesthetized with isoflurane inhalation, and a 1 mL syringe equipped with a 3.5-F catheter, filled with oxazolone solution, was inserted carefully about 4 cm into the colon of the mouse. Following insertion, 50 μL of the oxazolone solution (1%, 1:1 ethanol:water formulation) was injected very slowly (over 30 sec using an injection pump) into the colon. The catheter was removed and the mice were held vertically (head down) for 2 min to ensure that the entire oxazolone solution remained inside the colon. Drug treatment (PO, BID or TID) or vehicle was initiated a day prior to the oxazolone intrarectal (IR) challenge. Two-day post oxazolone intrarectal challenge, the Disease Activity Index (DAI) was assessed by treatment-blinded experimenters for each mouse according to the criteria score: stool consistency score (0, normal; 2, loose; 4, diarrhea), gross bleeding score (0, absence; 2, blood tinged; 4, presence), and weight loss score (0, none; 1, 1%-5%; 2, 5%-10^%; 3, 10%-20%; 4, more than 20%); DAI=average of (stool consistency score+gross bleeding score+weight loss score).
Selected compounds of the invention were tested in the assay. Efficacy in the model is evidenced by a decrease in DAI score as compared with the score from vehicle treated animals.

[5] = tested on: splenic NK, B and T cells; experiment: Immunosuppression effects in mouse splenic natural killer (NK) cells; format: in vivo, Balb/C mice; details: mouse, PO BID three days
Experimental: Assay 8: Immunosuppression Effects in Mouse Splenic Natural Killer (NK) Cells Depletion of mouse splenic cells is an experimental model of immunosuppression (Kudlacz et al., Am. J. of Transplantation, 2004, 4, 51-57). […] Adult male Balb/C mice (12-14 weeks of age) from Harlan were used for the study. […] Spleens were harvested 1 or 2 h post last dose and crushed immediately for cell subtype staining. Prior to fixation, fluorophore-labelled antibodies for CD19 (FITC; B cells), CD3e (PE; pan T cells) and DX5 (APC; NK cells) were incubated with splenocyte samples from each animal to allow for simultaneous, multiple subtype % analysis on the flow cytometer. The number of total spleen cells for each animal was measured by Scepter™ 2.0 Handheld Automated Cell Counter. The absolute number of lymphocyte subtype population (e.g., splenic B, T and NK cells) was calculated from the percentage of each subtype times total spleen cells for each animal. A one way ANOVA, with Dunnett's post hoc test, was used to compare the splenic lymphocytes number of the vehicle and test compound groups. The a level was set at p<0.05. Data were presented as the mean±SEM for each group.

JAK2 = JAK2 (Homo sapiens (Human), UniProt O60674); format: biochemical
Experimental: as §1, §2, §3, §4

[6] = Determination of absorption in cannulated rats; format: in vivo, Sprague Dawley rats; details: rat, oral dose
Experimental: Drug levels were determined using an LC-MS-MS method. The resulting drug levels were used to compute the IV pharmacokinetic parameters: AUC IV and Dose IV. (2) Rats that have been cannulated in their portal vein (PV) and also in their jugular vein (JV) were dosed orally with test compound. Following oral dosing, plasma samples were typically collected from 0-6 hr from both the portal vein and the jugular vein. Drug levels were determined using an LC-MS-MS method. The resulting drug levels were used to compute the following pharmacokinetic parameters: AUC PO PV, AUC PO JV, and Dose PO. Using data derived from the above studies, the oral bioavailability F %, and the quantities Fa % and Fh % were calculated from the following formulas: F %=(AUC PO JV/AUC IV)*(Dose IV/Dose PO)*100 Fa %=(AUC PO PV/AUC IV)*(Dose IV/Dose PO)*100 Fh %=AUC PO JV/AUC PO PV where: AUC PO JV=Area under the curve following oral dose and plasma collected from the jugular vein AUC PO PV=Area under the curve following oral dose and plasma collected from the portal vein AUC IV=Area under the curve following an intravenous dose Dose IV=Intravenous Dose in mg/kg Dose PO=Oral Dose in mg/kg

[7] = THP-1 cells, IL-4 induced STAT6 phosphorylation
[8] = BEAS-2B cells, IL-13 induced STAT6 phosphorylation

Chain of JAK1 (P23458 whole entry): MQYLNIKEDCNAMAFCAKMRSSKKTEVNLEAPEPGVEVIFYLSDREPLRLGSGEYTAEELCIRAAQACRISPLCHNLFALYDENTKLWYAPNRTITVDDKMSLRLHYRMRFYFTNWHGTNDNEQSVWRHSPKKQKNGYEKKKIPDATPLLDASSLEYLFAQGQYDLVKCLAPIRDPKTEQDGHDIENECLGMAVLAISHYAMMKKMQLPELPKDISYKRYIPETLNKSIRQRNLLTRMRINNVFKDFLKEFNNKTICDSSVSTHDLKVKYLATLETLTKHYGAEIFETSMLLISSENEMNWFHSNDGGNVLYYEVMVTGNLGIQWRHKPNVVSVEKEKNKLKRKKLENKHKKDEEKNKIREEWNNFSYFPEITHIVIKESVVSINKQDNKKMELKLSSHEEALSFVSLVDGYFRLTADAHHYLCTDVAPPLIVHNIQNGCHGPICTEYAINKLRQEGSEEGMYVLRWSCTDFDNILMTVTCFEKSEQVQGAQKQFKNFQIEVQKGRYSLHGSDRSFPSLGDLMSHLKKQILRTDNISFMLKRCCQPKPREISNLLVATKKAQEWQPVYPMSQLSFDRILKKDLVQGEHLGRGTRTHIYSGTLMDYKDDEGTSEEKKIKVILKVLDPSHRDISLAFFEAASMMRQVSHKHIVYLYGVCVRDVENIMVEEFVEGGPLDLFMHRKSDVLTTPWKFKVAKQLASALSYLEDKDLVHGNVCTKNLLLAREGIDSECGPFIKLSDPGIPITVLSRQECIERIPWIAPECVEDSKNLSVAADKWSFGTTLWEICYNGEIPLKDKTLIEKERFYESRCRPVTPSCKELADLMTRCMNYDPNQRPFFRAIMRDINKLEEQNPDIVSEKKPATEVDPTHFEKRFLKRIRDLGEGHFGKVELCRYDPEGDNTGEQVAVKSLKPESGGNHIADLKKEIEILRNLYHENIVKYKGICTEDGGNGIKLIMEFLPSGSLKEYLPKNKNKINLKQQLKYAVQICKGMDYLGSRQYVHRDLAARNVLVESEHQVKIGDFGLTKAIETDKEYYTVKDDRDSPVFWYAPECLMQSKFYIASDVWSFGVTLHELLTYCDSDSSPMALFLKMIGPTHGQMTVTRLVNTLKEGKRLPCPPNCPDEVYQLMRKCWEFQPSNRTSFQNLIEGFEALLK
Chain of TYK2 (P29597 whole entry): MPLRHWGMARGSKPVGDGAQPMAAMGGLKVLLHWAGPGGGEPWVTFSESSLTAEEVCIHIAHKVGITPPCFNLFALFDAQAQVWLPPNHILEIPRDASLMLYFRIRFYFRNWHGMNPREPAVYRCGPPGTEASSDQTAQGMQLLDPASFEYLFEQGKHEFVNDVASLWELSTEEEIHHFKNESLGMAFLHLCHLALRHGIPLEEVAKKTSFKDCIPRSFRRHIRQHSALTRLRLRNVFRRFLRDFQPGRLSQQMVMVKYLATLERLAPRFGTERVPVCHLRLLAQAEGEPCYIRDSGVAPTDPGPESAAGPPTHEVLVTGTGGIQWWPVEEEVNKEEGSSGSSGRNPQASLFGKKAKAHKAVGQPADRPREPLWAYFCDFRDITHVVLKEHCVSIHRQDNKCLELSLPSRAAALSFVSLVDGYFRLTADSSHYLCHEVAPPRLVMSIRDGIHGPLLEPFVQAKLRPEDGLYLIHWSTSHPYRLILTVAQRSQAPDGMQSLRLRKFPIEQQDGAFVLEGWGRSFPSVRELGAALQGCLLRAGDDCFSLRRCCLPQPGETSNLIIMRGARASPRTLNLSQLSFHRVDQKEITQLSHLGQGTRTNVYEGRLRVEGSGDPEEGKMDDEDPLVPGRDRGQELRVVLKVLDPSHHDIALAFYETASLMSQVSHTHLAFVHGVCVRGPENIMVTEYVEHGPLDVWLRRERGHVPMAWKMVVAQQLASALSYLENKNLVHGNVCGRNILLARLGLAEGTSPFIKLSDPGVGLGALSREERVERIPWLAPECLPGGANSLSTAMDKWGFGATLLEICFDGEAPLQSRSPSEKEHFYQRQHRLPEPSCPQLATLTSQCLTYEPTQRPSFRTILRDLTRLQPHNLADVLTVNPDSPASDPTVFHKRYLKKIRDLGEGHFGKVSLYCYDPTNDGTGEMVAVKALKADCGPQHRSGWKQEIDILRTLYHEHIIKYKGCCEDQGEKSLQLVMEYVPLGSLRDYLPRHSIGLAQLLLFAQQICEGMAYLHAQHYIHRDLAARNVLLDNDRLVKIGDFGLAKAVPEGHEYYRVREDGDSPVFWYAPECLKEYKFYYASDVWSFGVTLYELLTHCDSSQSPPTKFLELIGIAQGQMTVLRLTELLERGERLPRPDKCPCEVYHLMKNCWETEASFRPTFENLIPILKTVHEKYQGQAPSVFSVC
Chain of JAK2 (O60674 whole entry): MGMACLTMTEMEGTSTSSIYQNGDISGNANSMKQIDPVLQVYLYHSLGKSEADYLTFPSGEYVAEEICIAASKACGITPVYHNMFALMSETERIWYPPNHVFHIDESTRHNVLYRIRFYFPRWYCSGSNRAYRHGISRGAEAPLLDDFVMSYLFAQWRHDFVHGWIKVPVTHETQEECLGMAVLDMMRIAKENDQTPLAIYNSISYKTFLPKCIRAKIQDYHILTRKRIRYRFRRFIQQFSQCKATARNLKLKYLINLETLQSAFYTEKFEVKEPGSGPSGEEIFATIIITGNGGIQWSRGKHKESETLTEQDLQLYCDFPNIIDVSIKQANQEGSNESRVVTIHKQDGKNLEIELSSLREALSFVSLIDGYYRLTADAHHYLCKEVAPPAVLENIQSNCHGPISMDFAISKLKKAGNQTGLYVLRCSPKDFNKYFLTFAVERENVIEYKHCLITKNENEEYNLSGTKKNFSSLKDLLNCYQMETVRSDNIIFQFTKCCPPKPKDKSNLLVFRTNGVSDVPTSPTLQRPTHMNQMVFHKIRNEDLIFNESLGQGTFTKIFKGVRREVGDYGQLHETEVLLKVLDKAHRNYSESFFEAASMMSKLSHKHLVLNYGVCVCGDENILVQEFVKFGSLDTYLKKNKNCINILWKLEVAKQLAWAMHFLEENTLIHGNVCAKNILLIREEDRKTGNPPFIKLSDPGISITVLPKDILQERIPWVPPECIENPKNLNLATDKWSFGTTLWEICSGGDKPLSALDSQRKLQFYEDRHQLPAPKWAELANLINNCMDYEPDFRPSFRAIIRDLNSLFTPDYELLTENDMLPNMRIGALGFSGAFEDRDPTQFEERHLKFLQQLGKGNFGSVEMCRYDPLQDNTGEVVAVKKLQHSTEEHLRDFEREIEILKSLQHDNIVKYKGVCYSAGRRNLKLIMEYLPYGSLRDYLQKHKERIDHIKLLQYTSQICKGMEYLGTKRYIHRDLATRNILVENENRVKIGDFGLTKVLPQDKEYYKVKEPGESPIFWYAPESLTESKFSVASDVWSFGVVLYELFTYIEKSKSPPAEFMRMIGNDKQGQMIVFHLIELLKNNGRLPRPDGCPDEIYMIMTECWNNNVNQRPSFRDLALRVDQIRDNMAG

CCS(=O)(=O)N1[C@@H]2CC[C@H]1C[C@H](Nc1nc(Nc3cc(C)[nH]n3)cc3nc(CN4CCOCC4)ccc13)C2 [Example 5-16]
THP-1 IL4 pIC50 [1, 7]: B (B represents a pEC50 value between 6.7 and 7.5 (EC50 between 200 nM and 32 nM)) | BEAS2B pIC50 [2, 8]: B (B represents a pEC50 value between 6.7 and 7.5 (EC50 between 200 nM and 32 nM))

Cc1cc(Nc2cc3ncccc3c(N[C@@H]3C[C@H]4CC[C@@H](C3)N4Cc3cccc(O)c3)n2)n[nH]1 [Example 1-19]
Tyk 2 (pKi) (TYK2): C (C represents a pKi value between 7 and 9 (Ki between 100 nM and 1 nM)) | THP-1 IL4 pIC50 [1, 7]: B (B represents a pEC50 value between 6.7 and 7.5 (EC50 between 200 nM and 32 nM))

Cc1cc(Nc2cc3ncccc3c(N[C@@H]3C[C@H]4CC[C@@H](C3)N4CCC#N)n2)n[nH]1 [Form I, 3-((1R,3s,5S)-3-((7-((5-methyl-1H-pyrazol-3-yl)amino)-1,6-naphthyridin-5-yl)amino)-8-azabicyclo[3.2.1]octan-8-yl)propanenitrile]
weight gain / weight change (moisture sorption) [3]: less than 0.15%

CCC1(S(=O)(=O)N2[C@@H]3CCC[C@H]2C[C@H](Nc2nc(Nc4cc(C)[nH]n4)cc4ncccc24)C3)CC1 [Example 4-20]
BEAS2B pIC50 [2]: A (key: A represents a pEC50 value ≥7.5 (EC50≤32 nM); B represents a pEC50 value between 6.7 and 7.5 (EC50 between 200 nM and 32 nM); C represents a pEC50 value <6.7 (EC50>200 nM))

Cc1cc(Nc2cc3ncccc3c(N[C@@H]3C[C@H]4CC[C@@H](C3)N4C(=O)c3cccnc3)n2)n[nH]1 [Example 2-14]
JAK 1 (pKi) (JAK1): B (B represents a pKi value between 9 and 10 (Ki between 1 nM and 0.1 nM)) | THP-1 IL4 pIC50 [1]: C (key: A represents a pEC50 value ≥7.5 (EC50≤32 nM); B represents a pEC50 value between 6.7 and 7.5 (EC50 between 200 nM and 32 nM); C represents a pEC50 value <6.7 (EC50>200 nM))

Cc1cc(Nc2cc3ncccc3c(N[C@@H]3C[C@H]4CCC[C@@H](C3)N4C(=O)C3(C)CCCC3)n2)n[nH]1 [Example 2-23]
JAK 1 (pKi) (JAK1): B (B represents a pKi value between 9 and 10 (Ki between 1 nM and 0.1 nM))

COC(=O)C1(C(=O)N2[C@@H]3CCC[C@H]2C[C@H](Nc2nc(Nc4cc(C)[nH]n4)cc4ncccc24)C3)CC1 [Example 2-21]
JAK 1 (pKi) (JAK1): B (B represents a pKi value between 9 and 10 (Ki between 1 nM and 0.1 nM))

Cc1cc(Nc2cc3ncccc3c(N[C@@H]3C[C@H]4CC[C@@H](C3)N4CC3(C#N)CC3)n2)n[nH]1 [Example 1-24]
THP-1 IL4 pIC50 [1, 7]: B (B represents a pEC50 value between 6.7 and 7.5 (EC50 between 200 nM and 32 nM)) | BEAS2B pIC50 [2, 8]: A (A represents a pEC50 value ≥7.5 (EC50≤32 nM))

CCC(=O)N1[C@@H]2CC[C@H]1C[C@H](Nc1nc(Nc3cc(C)[nH]n3)cc3ncccc13)C2 [Example 2-1]
DAI score as compared with vehicle treated animals [4]: did not exhibit a statistically significant decrease | THP-1 IL4 pIC50 [1, 7]: B (B represents a pEC50 value between 6.7 and 7.5 (EC50 between 200 nM and 32 nM)) | BEAS2B pIC50 [2, 8]: B (B represents a pEC50 value between 6.7 and 7.5 (EC50 between 200 nM and 32 nM))

C[C@@H]1CCN(C(=O)CC#N)C[C@@H]1N(C)c1ncnc2[nH]ccc12 [tofacitinib, reference compound]
B and T cell populations (spleen) [5]: No treatment effect

Cc1cc(Nc2cc3ncccc3c(N[C@@H]3C[C@H]4CC[C@@H](C3)N4C(=O)C3(C)CCCC3)n2)n[nH]1 [Example 2-10]
JAK 1 (pKi) (JAK1): B (B represents a pKi value between 9 and 10 (Ki between 1 nM and 0.1 nM)) | THP-1 IL4 pIC50 [1]: B (key: A represents a pEC50 value ≥7.5 (EC50≤32 nM); B represents a pEC50 value between 6.7 and 7.5 (EC50 between 200 nM and 32 nM); C represents a pEC50 value <6.7 (EC50>200 nM))

Cc1cc(Nc2cc3ncccc3c(N[C@@H]3C[C@H]4CCC[C@@H](C3)N4CC(F)(F)F)n2)n[nH]1 [Example 1-45]
Tyk 2 (pKi) (TYK2): B (B represents a pKi value between 9 and 10 (Ki between 1 nM and 0.1 nM)) | JAK 1 (pKi) (JAK1): B (B represents a pKi value between 9 and 10 (Ki between 1 nM and 0.1 nM)) | JAK 2 (pKi) (JAK2): B (B represents a pKi value between 9 and 10 (Ki between 1 nM and 0.1 nM))

Cc1cc(Nc2cc3nc(CO)ccc3c(N[C@@H]3C[C@H]4CC[C@@H](C3)N4C(=O)OCC(C)C)n2)n[nH]1 [Example 12, Isobutyl (1R,3s,5S)-3-((2-(hydroxymethyl)-7-((5-methyl-1H-pyrazol-3-yl)amino)-1,6-naphthyridin-5-yl)amino)-8-azabicyclo[3.2.1]octane-8-carboxylate]
DAI score as compared with vehicle treated animals [4]: statistically significant decrease | absorption at the portal vein (Fa %) [6]: less than 10%

Cc1cc(Nc2cc3ncccc3c(N[C@@H]3C[C@H]4CC[C@@H](C3)N4CC(F)(F)F)n2)n[nH]1 [Example 1-14]
Tyk 2 (pKi) (TYK2): B (B represents a pKi value between 9 and 10 (Ki between 1 nM and 0.1 nM)) | JAK 1 (pKi) (JAK1): B (B represents a pKi value between 9 and 10 (Ki between 1 nM and 0.1 nM)) | JAK 2 (pKi) (JAK2): B (B represents a pKi value between 9 and 10 (Ki between 1 nM and 0.1 nM)) | THP-1 IL4 pIC50 [1, 7]: A (A represents a pEC50 value ≥7.5 (EC50≤32 nM)) | BEAS2B pIC50 [2, 8]: A (A represents a pEC50 value ≥7.5 (EC50≤32 nM))

Cc1cc(Nc2cc3ncccc3c(N[C@@H]3C[C@H]4CCC[C@@H](C3)N4S(=O)(=O)c3cccnc3)n2)n[nH]1 [Example 8, N^7-(5-methyl-1H-pyrazol-3-yl)-N-((1R,3s,5S)-9-(pyridin-3-ylsulfonyl)-9-azabicyclo[3.3.1]nonan-3-yl)-1,6-naphthyridine-5,7-diamine]
DAI score as compared with vehicle treated animals [4]: statistically significant decrease | absorption at the portal vein (Fa %) [6]: less than 10%
